Target: rTRPV4-R746D (Rattus norvegicus, UniProt Q9ERZ8, R746D)
Test: Inside-out patch-clamp, HEK cells transfected with rTRPV4-R746D
Assay type: biochemical
Design: expressed in transfected cells; host or cells: HEK293
Details: 5 μM LPC 18:1
Method: Cell culture and transfection. HEK293 cells (ATCC® CRL-1573) were cultured on poly-D-lysine coated coverslips in 24-well plate containing DMEM media with high-Glucose (Gibco, Gaithersburg, MD) supplemented with 10% fetal bovine serum (FBS, HyClone Laboratories, Logan, UT) and 100 U/mL of penicillin/streptomycin (Gibco, Gaithersburg, MD). Cell cultures were maintained with 5% of CO2 in a humidified incubator at 37° C. HEK cells were transfected with rat or human wild type or mutant TRPV4 channels with EGFP or YFP coupled to their C-termini (1.5 μg of plasmid for excised patch clamp and Ca^2+ imaging and 200 ng for single-channel experiments). […]
Electrophysiology. Currents were recorded using the inside-out configuration of the patch-clamp technique (Hamill et al. Pflugers Arch. 1981, 391, 85-100). […] Mean current values in response to GSK1016790A or LPC 18:1 were measured after channel activation had reached the steady-state (˜3 min). […] Currents were low-pass filtered at 2 kHz and sampled at 10 kHz with an EPC 10 amplifier (HEKA Elektronik) and were plotted and analyzed with Igor Pro (Wavemetrics Inc.).

rTRPV4-R746D, sequence (Q9ERZ8 whole entry R746D): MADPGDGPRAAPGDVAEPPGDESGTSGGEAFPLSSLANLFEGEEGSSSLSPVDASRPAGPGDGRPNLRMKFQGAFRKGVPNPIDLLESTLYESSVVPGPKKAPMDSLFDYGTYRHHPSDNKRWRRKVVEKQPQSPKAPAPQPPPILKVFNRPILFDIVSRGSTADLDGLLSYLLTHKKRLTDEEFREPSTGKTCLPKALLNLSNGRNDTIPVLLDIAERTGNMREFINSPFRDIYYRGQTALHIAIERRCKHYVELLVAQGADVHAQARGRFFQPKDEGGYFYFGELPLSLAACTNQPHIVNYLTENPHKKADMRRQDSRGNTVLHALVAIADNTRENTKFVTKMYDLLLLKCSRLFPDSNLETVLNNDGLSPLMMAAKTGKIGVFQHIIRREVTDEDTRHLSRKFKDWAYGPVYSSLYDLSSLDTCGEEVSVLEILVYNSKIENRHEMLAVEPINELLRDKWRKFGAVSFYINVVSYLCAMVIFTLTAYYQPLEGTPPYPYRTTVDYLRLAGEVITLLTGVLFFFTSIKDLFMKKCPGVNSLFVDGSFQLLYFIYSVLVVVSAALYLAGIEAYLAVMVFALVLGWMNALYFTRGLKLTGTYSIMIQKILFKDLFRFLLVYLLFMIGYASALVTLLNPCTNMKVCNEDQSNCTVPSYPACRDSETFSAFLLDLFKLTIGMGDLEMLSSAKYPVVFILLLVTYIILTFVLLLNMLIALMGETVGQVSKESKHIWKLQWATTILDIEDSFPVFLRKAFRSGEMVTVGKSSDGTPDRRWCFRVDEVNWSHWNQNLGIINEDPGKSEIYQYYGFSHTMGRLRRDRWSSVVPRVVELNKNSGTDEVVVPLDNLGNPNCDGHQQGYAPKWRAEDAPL

Q: Which “average activation of currents, normalized to 1 μM GSK101” value does the source give for LPC 18:1 here?
A: Its value is 15±3%.

Source: patent US20240002846A1, “COMPOSITIONS AND METHODS FOR THE DIAGNOSIS AND TREATMENT OF ITCH” (Duke University, priority 2020, published 2024)
